Results as given in US5356880A, “Glycyrrhetinic acid derivatives” (priority 1991, dated 1994).
Where two headings read alike, the source gives them in different places.

Columns and labels:
influenza A virus = conditions: cited from earlier work
influenza B virus = conditions: cited from earlier work
AIDS virus (HIV) = conditions: cited from earlier work
HSV-1 (Miyama strain) [1] = assay: In vitro antiviral action on cells infected with HSV-1 (Miyama strain), CPE inhibition, TCID50; assay type: cell-based, Herpes simplex virus type 1; conditions: read-out: Antiviral Activity (ΔTCID50); for log reduction at 5 µg/mL: 5 μg/ml; for log reduction at 25 µg/mL: 25 μg/ml
HSV (UV-238 Strain) = assay: Action on HSV (UV-238 strain), CPE inhibition, TCID50; assay type: cell-based; conditions: read-out: Antiviral Activity (ΔTCID50); for log reduction at 1 µg/mL: 1 μg/ml; for log reduction at 5 µg/mL: 5 μg/ml; for log reduction at 25 µg/mL: 25 μg/ml
GMK cells [2] = tested on: GMK cells
GMK cells [3] = assay: Cytotoxicity (HSV UV-238 strain test), microscopic
HSV-1 (KOS strain) = assay: microbe, parasite or virus in culture; assay type: cell-based, Herpes simplex virus type 1; conditions: Human alphaherpesvirus 1, Vero, read-out: Antiviral Activity (ΔTCID50)
HSV-2 (UW-268 strain) = assay: microbe, parasite or virus in culture; assay type: cell-based, Herpes simplex virus type 2; conditions: Human alphaherpesvirus 2, Vero, read-out: Antiviral Activity (ΔTCID50)
[4] = tested on: vaccinia viruses (D1E strain); assay: microbe, parasite or virus in culture; assay type: cell-based; conditions: Orthopoxvirus vaccinia, Vero, read-out: Antiviral Activity (ΔTCID50)
[5] = tested on: influenza viruses (A/PR/8 strain); assay: microbe, parasite or virus in culture; assay type: cell-based, influenza virus A/PR/8; conditions: unidentified influenza virus, PR/8, MDCK, read-out: Antiviral Activity (ΔTCID50)
[6] = Acute toxicity testing, oral, mice (LD50, Litchfield-Willcoxon); conditions: mouse, in vivo, ICR male mice, 7 days observation
Description: The compounds to be tested in the form of a 2% aqueous solution of Tween 80 were orally administrated to ICR male mice (weights: 24-30 g), five for each group.

[7] = tested on: influenza viruses (A/PR/8 strain); assay: microbe, parasite or virus in culture; assay type: cell-based, influenza virus A/PR/8; conditions: unidentified influenza virus, read-out: Antiviral Activity (ΔTCID50)
HSV-1 (Miyama strain) [8] = assay: In vivo antiviral action: prolongation of life of mice infected with HSV-1; design: species or system BALB/c male mice; conditions: abdominal route, once a day, control 6.1 ± 0.6
Description: BALB/c male mice of three weeks old, 10 for each group, were abdominally seeded with an infectious amount, 10LD50, of HSV-1(Miyama strain). One hour later and over six days after the next day, once a day, Compound (5) referred to in Table 1 was continuously administrated to each animal via an abdominal route.

herpes simplex virus = assay: Antiviral activity, general statement
[9] = Safety / cytotoxicity, general statement
[10] = Human alphaherpesvirus 1, 1 μg/ml, GMK cells
[11] = Human alphaherpesvirus 1, GMK cells

Row | Structure (SMILES) | log reduction at 1 µg/mL (HSV-1 (Miyama strain) [1]; [10]) | log reduction at 5 µg/mL (HSV-1 (Miyama strain) [1]; [11]) | log reduction at 25 µg/mL (HSV-1 (Miyama strain) [1]; [11]) | log reduction at 1 µg/mL (HSV (UV-238 Strain)) | log reduction at 5 µg/mL (HSV (UV-238 Strain)) | log reduction at 25 µg/mL (HSV (UV-238 Strain)) | magnitude of cytotoxicity (GMK cells [2]; 1 μg/ml) | magnitude of cytotoxicity (GMK cells [2]; 5 μg/ml) | other results
1 | CC(N)C12CC3CC(CC(C3)C1)C2 (racemic) [remantadine] |  |  |  |  |  |  |  |  | efficacy against influenza A virus (influenza A virus): efficacious against influenza A virus; efficacy against influenza B virus (influenza B virus): not against influenza B virus
2 | Cc1cn([C@H]2C[C@H](N=[N+]=[N-])[C@@H](CO)O2)c(=O)[nH]c1=O [AZT] |  |  |  |  |  |  |  |  | effect on AIDS (AIDS virus (HIV)): delay the development of AIDS, but cannot accelerate healing
3 | NC12CC3CC(CC(C3)C1)C2 [Amantadine] |  |  |  |  |  |  |  |  | efficacy against influenza A virus (influenza A virus): efficacious against influenza A virus; efficacy against influenza B virus (influenza B virus): not against influenza B virus
4 | Nc1ncnc2c1ncn2[C@@H]1O[C@H](CO)[C@@H](O)[C@@H]1O [Ara-a, reference compound] | 1.2 | 1.5 | 2.5 | 1.1 | 1.7 | 2.6 | - |  | magnitude of cytotoxicity (GMK cells [3]; 1 μg/ml): -
5 | CC1(C)[C@@H](OC(=O)CCC(=O)O)CC[C@]2(C)[C@H]3C(=O)C=C4[C@@H]5C[C@@](C)(C(=O)O)CC[C@]5(C)CC[C@@]4(C)[C@]3(C)CC[C@@H]12 [Carbenoxolone, reference compound] | 0.2 | 0.3 | 2.4 | 0.2 | 0.2 | 2.2 |  |  | 
6 | COc1ccccc1N1CCN(C(=O)[C@@]2(C)CC[C@]3(C)CC[C@]4(C)C(=CC[C@@H]5[C@@]6(C)CC[C@H](O[C@@H]7O[C@H](CO)[C@@H](O)[C@H](O)[C@H]7O)C(C)(C)[C@@H]6CC[C@]54C)[C@@H]3C2)CC1 [Comp. Ex. 25, 1-(3β-(β-D-glucopyranosyloxy)-18β-olean-12-en-30-oyl)-4-(2-methoxyphenyl)piperazine] |  | > 3 | > 3.56 |  |  |  | - | - | log reduction at 1 µg/mL (HSV-1 (Miyama strain) [1]; Human alphaherpesvirus 1, GMK): 1.86; log reduction at 1 µg/mL (HSV-1 (KOS strain)): 2.04; log reduction at 5 µg/mL (HSV-1 (KOS strain)): > 3.19; log reduction at 25 µg/mL (HSV-1 (KOS strain)): > 3.31; log reduction at 1 µg/mL (HSV-2 (UW-268 strain)): 1.85; log reduction at 5 µg/mL (HSV-2 (UW-268 strain)): 2.92; log reduction at 25 µg/mL (HSV-2 (UW-268 strain)): > 3.3; log reduction at 1 µg/mL [4]: 1.7; log reduction at 5 µg/mL [4]: 2.67; log reduction at 25 µg/mL [4]: 2.53; log reduction at 1 µg/mL [5]: 1.31; log reduction at 5 µg/mL [5]: 1.86; log reduction at 25 µg/mL [5]: 2.22; LD50 at 168 h [6]: > 1000 mg/kg; magnitude of cytotoxicity (GMK cells [2]; 25 μg/ml): ±
7 | O=c1[nH]cnc2c1ncn2[C@H]1CC[C@@H](CO)O1 [DDI] |  |  |  |  |  |  |  |  | effect on AIDS (AIDS virus (HIV)): delay the development of AIDS, but cannot accelerate healing
8 | NC(=O)c1ncn([C@@H]2O[C@H](CO)[C@@H](O)[C@H]2O)n1 [Ribavirin, reference compound] |  |  |  |  |  |  |  |  | log reduction at 1 µg/mL ([7]; PR/8, 1 μg/ml, MDCK cells): 0.8; log reduction at 5 µg/mL ([7]; PR/8, 5 μg/ml, MDCK cells): 1.8; log reduction at 20 µg/mL ([7]; PR/8, 20 μg/ml, MDCK cells): 3.2; magnitude of cytotoxicity (MDCK cells; 1 μg/ml): -; magnitude of cytotoxicity (MDCK cells; 5 μg/ml): -; magnitude of cytotoxicity (MDCK cells; 20 μg/ml): -
9 | COc1ccccc1N1CCN(C(=O)[C@@]2(C)CC[C@]3(C)CC[C@]4(C)C(=CC[C@@H]5[C@@]6(C)CC[C@H](OC(=O)/C=C\C(=O)O)C(C)(C)[C@@H]6CC[C@]54C)[C@@H]3C2)CC1 [Table 1, Comp. (5), 1-[3β-(3-carboxy-cis-propenoyloxy)-18β-olean-12-en-30-oyl]-4-(2-methoxyphenyl)piperazine] | 1 | 2.1 | 3.1 | 1.3 | 2.2 | 2.8 | - | - | Mean Survival Days (average ± standard error) (HSV-1 (Miyama strain) [8]; 5 mg/Kg): 7.9 ± 1.1 days; Mean Survival Days (average ± standard error) (HSV-1 (Miyama strain) [8]; 10 mg/Kg, p < 0.05 (t-Test)): 8.6 ± 0.7 days; Mean Survival Days (average ± standard error) (HSV-1 (Miyama strain) [8]; 20 mg/Kg, p < 0.001 (t-Test)): 11.2 ± 1.1 days; log reduction at 1 µg/mL ([7]; PR/8, MDCK): 0.8; log reduction at 5 µg/mL ([7]; PR/8, MDCK): 1.2; log reduction at 20 µg/mL ([7]; PR/8, MDCK): 2.1; magnitude of cytotoxicity (GMK cells [2]; 25 μg/ml): -; magnitude of cytotoxicity (MDCK cells): -; magnitude of cytotoxicity (GMK cells [3]; 1 μg/ml): -; magnitude of cytotoxicity (GMK cells [3]; 5 μg/ml): -; magnitude of cytotoxicity (GMK cells [3]; 25 μg/ml): -
10 | COc1ccccc1N1CCN(C(=O)[C@@]2(C)CC[C@]3(C)CC[C@]4(C)C(=CC[C@@H]5[C@@]6(C)CC[C@H](O)C(C)(C)[C@@H]6CC[C@]54C)[C@@H]3C2)CC1 [Table 1, Comp. (9), 1-(3β-hydroxy-18β-olean-12-en-30-oyl)-4-(2-methoxyphenyl) piperazine] | 1.3 | 1.2 |  | 0.7 | 1.3 | 2.5 | - |  | log reduction at 1 µg/mL ([7]; PR/8, MDCK): 0.5; log reduction at 5 µg/mL ([7]; PR/8, MDCK): 1; log reduction at 20 µg/mL ([7]; PR/8, MDCK): 1.3; magnitude of cytotoxicity (GMK cells [3]; 1 μg/ml): -
11 | CC(C)=CCCC(C)=CCCC(C)=CCN1CCN(C(=O)[C@@]2(C)CC[C@]3(C)CC[C@]4(C)C(=CC[C@@H]5[C@@]6(C)CC[C@H](OC(=O)/C=C\C(=O)O)C(C)(C)[C@@H]6CC[C@]54C)[C@@H]3C2)CC1 [Table 1, Comp. (10)] | 0.7 | 2 | 1.9 |  |  |  | - |  | 
12 | COc1ccccc1N1CCN(C(=O)[C@@]2(C)CC[C@]3(C)CC[C@]4(C)C(=CC[C@@H]5[C@@]6(C)CC[C@H](OC(=O)CCC(=O)O)C(C)(C)[C@@H]6CC[C@]54C)[C@@H]3C2)CC1 [Table 1, Comp. (13), 1-[3β-(3-carboxypropanoyloxy)-18β-olean-12-en-30-oyl]-4-(2-methoxyphenyl)piperazine] | 0.8 | 2.6 | 2.5 | 0.9 | 1.4 | 2.5 | - | - | log reduction at 1 µg/mL ([7]; PR/8, MDCK): 0.4; log reduction at 5 µg/mL ([7]; PR/8, MDCK): 0.6; log reduction at 20 µg/mL ([7]; PR/8, MDCK): 1.5; antiviral activity (herpes simplex virus): a particularly high antiviral activity; safety / cytotoxic action [9]: of greatly safety; magnitude of cytotoxicity (GMK cells [3]; 1 μg/ml): -; magnitude of cytotoxicity (GMK cells [3]; 5 μg/ml): -
13 | CC1(C)[C@@H](OCC(=O)O)CC[C@]2(C)[C@H]3CC=C4[C@@H]5C[C@@](C)(C(=O)O)CC[C@]5(C)CC[C@@]4(C)[C@]3(C)CC[C@@H]12 [Table 1, Comp. (15), disodium-3β-carboxymethoxy-18β-olean-12-en-30-oate] | 0 | 0.3 | 1 |  |  |  | - | - | 
14 | CC1(C)[C@@H](OCCC(=O)O)CC[C@]2(C)[C@H]3CC=C4[C@@H]5C[C@@](C)(C(=O)O)CC[C@]5(C)CC[C@@]4(C)[C@]3(C)CC[C@@H]12 [Table 1, Comp. (18), disodium-3β-(2-carboxyethoxy)-18β-olean-12-en-30-oate] | 0.7 | 1.6 | 1.2 |  |  |  | - | - | 
